Source: article PMC6364417, “Kinase inhibitor library screening identifies synergistic drug combinations effective in sensitive and resistant melanoma cells” (Journal of Experimental & Clinical Cancer Research : CR, 2019)

Legend:
Test in all cases: Kinase inhibitor library screening, PrestoBlue cell viability, 1 or 10 μM, 72 h
[1] = test system: 501Mel cells (parental); conditions: 72 h
Method in brief: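 Readout: PrestoBlue signal on a monochromator plate reader, given as percent viability relative to untreated controls. Parental and drug-resistant (Vemurafenib XP, Dabrafenib GP) sublines were tested; at least duplicates per line.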

[2] = test system: 501Mel-GP cells (Dabrafenib-resistant); conditions: 72 h
[3] = test system: 501Mel-XP cells (Vemurafenib-resistant); conditions: 72 h
[4] = test system: A375 cells (parental)
[5] = test system: A375-GP cells (Dabrafenib-resistant)
[6] = test system: A375-XP cells (Vemurafenib-resistant)
[7] = test system: IGR37 cells (parental)
[8] = test system: IGR37-GP cells (Dabrafenib-resistant)
[9] = test system: IGR37-XP cells (Vemurafenib-resistant)
[10] = IGR37 Parental, 10μΜ, 72 h, in %

COCCOc1ccc2c(c1)ncn2-c1ccc2cccc(N3CCC(N)CC3)c2n1 [CP 673451]
Cell viability in kinase inhibitor library screening, 501Mel Parental, 10μΜ ([1]; 501Mel Parental, 10μΜ, in %): 90.0 | Cell viability in kinase inhibitor library screening, 501Mel GP, 1μΜ ([2]; 501Mel GP, 1μΜ, in %): 117.9 | Cell viability in kinase inhibitor library screening, 501Mel GP, 10μΜ ([2]; 501Mel GP, 10μΜ, in %): 96.1 | Cell viability in kinase inhibitor library screening, 501Mel XP, 1μΜ ([3]; 501Mel XP, 1μΜ, in %): 107.1 | Cell viability in kinase inhibitor library screening, 501Mel XP, 10μΜ ([3]; 501Mel XP, 10μΜ, in %): 62.2 | Cell viability in kinase inhibitor library screening, A375 Parental, 10μΜ ([4]; A375 Parental, 10μΜ, 72 h): 71.9 | Cell viability in kinase inhibitor library screening, A375 Parental, 1μΜ ([4]; A375 Parental, 1μΜ, 72 h): 104.8 | Cell viability in kinase inhibitor library screening, A375 GP, 1μΜ ([5]; A375 GP, 1μΜ, 72 h): 105.4 | Cell viability in kinase inhibitor library screening, A375 GP, 10μΜ ([5]; A375 GP, 10μΜ, 72 h): 64.4 | Cell viability in kinase inhibitor library screening, A375 XP, 1μΜ ([6]; A375 XP, 1μΜ, 72 h): 109.7 | Cell viability in kinase inhibitor library screening, A375 XP, 10μΜ ([6]; A375 XP, 10μΜ, 72 h): 76.9 | Cell viability in kinase inhibitor library screening, IGR37 Parental, 10μΜ [7, 10]: 105.1 | Cell viability in kinase inhibitor library screening, IGR37 GP, 10μΜ ([8]; IGR37 GP, 10μΜ, 72 h): 88.6% | Cell viability in kinase inhibitor library screening, IGR37 GP, 1μΜ ([8]; IGR37 GP, 1μΜ, 72 h, in %): 99.0 | Cell viability in kinase inhibitor library screening, IGR37 XP, 10μΜ ([9]; IGR37 XP, 10μΜ, 72 h): 31.6% | Cell viability in kinase inhibitor library screening, IGR37 XP, 1μΜ ([9]; IGR37 XP, 1μΜ, 72 h, in %): 105.2

CCOc1ccn(-c2ccc(F)cc2)c(=O)c1C(=O)Nc1ccc(Oc2ccnc(N)c2Cl)c(F)c1 [BMS 777607]
cell viability (kinase inhibitor library screening) ([1]; 501Mel Parental, 1μΜ): 88.2% | cell viability (kinase inhibitor library screening) ([1]; 501Mel Parental, 10μΜ): 68.4% | cell viability (kinase inhibitor library screening) ([2]; 501Mel GP, 10μΜ): 53.2% | cell viability (kinase inhibitor library screening) ([3]; 501Mel XP, 1μΜ): 72.2% | cell viability (kinase inhibitor library screening) ([3]; 501Mel XP, 10μΜ): 37.4% | cell viability (kinase inhibitor library screening) ([4]; A375 Parental, 10μΜ, 72 h): 42.4% | cell viability (kinase inhibitor library screening) ([4]; A375 Parental, 1μΜ, 72 h): 99.9% | cell viability (kinase inhibitor library screening) ([5]; A375 GP, 10μΜ, 72 h): 45.4% | cell viability (kinase inhibitor library screening) ([6]; A375 XP, 10μΜ, 72 h): 66.5% | cell viability (kinase inhibitor library screening) ([7]; IGR37 Parental, 1μΜ, 72 h): 97.6% | cell viability (kinase inhibitor library screening) ([7]; IGR37 Parental, 10μΜ, 72 h): 81.6% | cell viability (kinase inhibitor library screening) ([8]; IGR37 GP, 1μΜ, 72 h): 87.2% | cell viability (kinase inhibitor library screening) ([8]; IGR37 GP, 10μΜ, 72 h): 82.2% | cell viability (kinase inhibitor library screening) ([9]; IGR37 XP, 1μΜ, 72 h): 91.2% | cell viability (kinase inhibitor library screening) ([9]; IGR37 XP, 10μΜ, 72 h): 46.6%

COc1ccc(Cl)c(Nc2nc3ccccc3nc2NS(=O)(=O)c2cccc(NC(=O)C(C)(C)N)c2)c1 [XL147]
Cell viability in kinase inhibitor library screening, 501Mel Parental, 1μΜ ([1]; 501Mel Parental, 1μΜ, in %): 95.0 | Cell viability in kinase inhibitor library screening, 501Mel Parental, 10μΜ ([1]; 501Mel Parental, 10μΜ, in %): 91.9 | Cell viability in kinase inhibitor library screening, 501Mel GP, 10μΜ ([2]; 501Mel GP, 10μΜ, in %): 87.3 | Cell viability in kinase inhibitor library screening, 501Mel XP, 1μΜ ([3]; 501Mel XP, 1μΜ, in %): 93.7 | Cell viability in kinase inhibitor library screening, 501Mel XP, 10μΜ ([3]; 501Mel XP, 10μΜ, in %): 83.3 | Cell viability in kinase inhibitor library screening, A375 Parental, 10μΜ ([4]; A375 Parental, 10μΜ, 72 h): 88.5 | Cell viability in kinase inhibitor library screening, A375 Parental, 1μΜ ([4]; A375 Parental, 1μΜ, 72 h): 99.8 | Cell viability in kinase inhibitor library screening, A375 GP, 1μΜ ([5]; A375 GP, 1μΜ, 72 h): 91.5 | Cell viability in kinase inhibitor library screening, A375 GP, 10μΜ ([5]; A375 GP, 10μΜ, 72 h): 84.7 | Cell viability in kinase inhibitor library screening, A375 XP, 1μΜ ([6]; A375 XP, 1μΜ, 72 h): 100.4 | Cell viability in kinase inhibitor library screening, A375 XP, 10μΜ ([6]; A375 XP, 10μΜ, 72 h): 100.4 | Cell viability in kinase inhibitor library screening, IGR37 Parental, 10μΜ [7, 10]: 90.5 | Cell viability in kinase inhibitor library screening, IGR37 GP, 10μΜ ([8]; IGR37 GP, 10μΜ, 72 h): 88.3% | Cell viability in kinase inhibitor library screening, IGR37 GP, 1μΜ ([8]; IGR37 GP, 1μΜ, 72 h, in %): 103.8 | Cell viability in kinase inhibitor library screening, IGR37 XP, 10μΜ ([9]; IGR37 XP, 10μΜ, 72 h): 62.4% | Cell viability in kinase inhibitor library screening, IGR37 XP, 1μΜ ([9]; IGR37 XP, 1μΜ, 72 h, in %): 98.4

C[C@]1(O)C[C@@H](c2nc(-c3ccc4ccc(-c5ccccc5)nc4c3)c3c(N)nccn32)C1 [Linsitinib (OSI-906)]
viability at 1 µM ([1]; Homo sapiens, read-out: cell viability, 501Mel Parental, 1μΜ): 70.7% | viability at 10 µM ([1]; Homo sapiens, read-out: cell viability, 501Mel Parental, 10μΜ): 45.5% | viability at 1 µM ([2]; Homo sapiens, read-out: cell viability, 501Mel GP, 1μΜ): 83.6% | viability at 10 µM ([2]; Homo sapiens, read-out: cell viability, 501Mel GP, 10μΜ): 54.2% | viability at 1 µM ([3]; Homo sapiens, read-out: cell viability, 501Mel XP, 1μΜ): 75.2% | viability at 10 µM ([3]; Homo sapiens, read-out: cell viability, 501Mel XP, 10μΜ): 32.6% | viability at 1 µM ([4]; Homo sapiens, A-375, 72 h, read-out: cell viability, A375 Parental, 1μΜ): 84.1% | viability at 10 µM ([4]; Homo sapiens, A-375, 72 h, read-out: cell viability, A375 Parental, 10μΜ): 42.3% | viability at 1 µM ([5]; Homo sapiens, A-375, 72 h, read-out: cell viability, A375 GP, 1μΜ): 67.1% | viability at 10 µM ([5]; Homo sapiens, A-375, 72 h, read-out: cell viability, A375 GP, 10μΜ): 34.4% | viability at 1 µM ([6]; Homo sapiens, A-375, 72 h, read-out: cell viability, A375 XP, 1μΜ): 77.2% | viability at 10 µM ([6]; Homo sapiens, A-375, 72 h, read-out: cell viability, A375 XP, 10μΜ): 44.6% | viability at 1 µM ([7]; Homo sapiens, IGR-37, 72 h, read-out: cell viability, IGR37 Parental, 1μΜ): 107% | viability at 10 µM ([7]; Homo sapiens, IGR-37, 72 h, read-out: cell viability, IGR37 Parental, 10μΜ): 67.7% | viability at 1 µM ([8]; Homo sapiens, IGR-37, 72 h, read-out: cell viability, IGR37 GP, 1μΜ): 81.6% | viability at 10 µM ([8]; Homo sapiens, IGR-37, 72 h, read-out: cell viability, IGR37 GP, 10μΜ): 25.5% | viability at 1 µM ([9]; Homo sapiens, IGR-37, 72 h, read-out: cell viability, IGR37 XP, 1μΜ): 66.7% | viability at 10 µM ([9]; Homo sapiens, IGR-37, 72 h, read-out: cell viability, IGR37 XP, 10μΜ): 6.7%

O=C(NOCC1CC1)c1ccc(F)c(F)c1Nc1ccc(I)cc1Cl [CI-1040 (PD184352)]
cell viability, 501Mel Parental, 1μΜ ([1]; 501Mel Parental, 1μΜ, in %): 64.1 | cell viability, 501Mel Parental, 10μΜ ([1]; 501Mel Parental, 10μΜ, in %): 50.2 | cell viability, 501Mel GP, 1μΜ ([2]; 501Mel GP, 1μΜ, in %): 98.8 | cell viability, 501Mel GP, 10μΜ ([2]; 501Mel GP, 10μΜ, in %): 56.0 | cell viability, 501Mel XP, 1μΜ ([3]; 501Mel XP, 1μΜ, in %): 81.0 | cell viability, 501Mel XP, 10μΜ ([3]; 501Mel XP, 10μΜ, in %): 46.4 | cell viability, A375 Parental, 1μΜ ([4]; A375 Parental, 1μΜ, 72 h, in %): 22.5 | cell viability, A375 Parental, 10μΜ ([4]; A375 Parental, 10μΜ, 72 h, in %): 21.5 | cell viability, A375 GP, 1μΜ ([5]; A375 GP, 1μΜ, 72 h, in %): 35.2 | cell viability, A375 GP, 10μΜ ([5]; A375 GP, 10μΜ, 72 h, in %): 16.8 | cell viability, A375 XP, 1μΜ ([6]; A375 XP, 1μΜ, 72 h, in %): 44.6 | cell viability, A375 XP, 10μΜ ([6]; A375 XP, 10μΜ, 72 h, in %): 12.9 | cell viability, IGR37 Parental, 1μΜ ([7]; IGR37 Parental, 1μΜ, 72 h, in %): 43.0 | cell viability, IGR37 Parental, 10μΜ [7, 10]: 35.8 | cell viability, IGR37 GP, 10μΜ ([8]; IGR37 GP, 10μΜ, 72 h): 55.9% | cell viability, IGR37 GP, 1μΜ ([8]; IGR37 GP, 1μΜ, 72 h, in %): 84.8 | cell viability, IGR37 XP, 10μΜ ([9]; IGR37 XP, 10μΜ, 72 h): 26.4% | cell viability, IGR37 XP, 1μΜ ([9]; IGR37 XP, 1μΜ, 72 h, in %): 81.9

C[C@@H](Oc1cc(-c2cnn(C3CCNCC3)c2)cnc1N)c1c(Cl)ccc(F)c1Cl [Crizotinib (PF-02341066)]
cell viability (kinase inhibitor library screening) ([1]; 501Mel Parental, 1μΜ): 97.3% | cell viability (kinase inhibitor library screening) ([1]; 501Mel Parental, 10μΜ): 0.235% | cell viability (kinase inhibitor library screening) ([2]; 501Mel GP, 1μΜ): 80.0% | cell viability (kinase inhibitor library screening) ([2]; 501Mel GP, 10μΜ): -0.355% | cell viability (kinase inhibitor library screening) ([3]; 501Mel XP, 1μΜ): 62.4% | cell viability (kinase inhibitor library screening) ([3]; 501Mel XP, 10μΜ): -0.46% | cell viability (kinase inhibitor library screening) ([4]; A375 Parental, 10μΜ, 72 h): 20.5% | cell viability (kinase inhibitor library screening) ([4]; A375 Parental, 1μΜ, 72 h): 98.4% | cell viability (kinase inhibitor library screening) ([5]; A375 GP, 1μΜ, 72 h): 94.9% | cell viability (kinase inhibitor library screening) ([5]; A375 GP, 10μΜ, 72 h): 14.4% | cell viability (kinase inhibitor library screening) ([6]; A375 XP, 1μΜ, 72 h): 99.3% | cell viability (kinase inhibitor library screening) ([6]; A375 XP, 10μΜ, 72 h): 17.2% | cell viability (kinase inhibitor library screening) ([7]; IGR37 Parental, 1μΜ, 72 h): 93.8% | cell viability (kinase inhibitor library screening) ([7]; IGR37 Parental, 10μΜ, 72 h): 8.1% | cell viability (kinase inhibitor library screening) ([8]; IGR37 GP, 1μΜ, 72 h): 97.3% | cell viability (kinase inhibitor library screening) ([8]; IGR37 GP, 10μΜ, 72 h): 6.1% | cell viability (kinase inhibitor library screening) ([9]; IGR37 XP, 1μΜ, 72 h): 100.4% | cell viability (kinase inhibitor library screening) ([9]; IGR37 XP, 10μΜ, 72 h): 1.5%
